{"source": "paper PMC8779485", "about": "“Implementation and Comparison of Two Pharmacometric Tools for Model-Based Therapeutic Drug Monitoring and Precision Dosing of Daptomycin” (Pharmaceutics, 2022)", "key": {"[1]": {"conditions": "patients who received 6 mg/kg; cited from earlier work"}, "[2]": {"assay": "Daptomycin TDM in patients with bone and joint infection, Bayesian estimation with nonparametric model in BestDose (validation dataset)", "source_text": "(§1) We used two data sets: a learning set used to derive the nonparametric population model of daptomycin and a validation dataset. The learning dataset was described in a previous publication from our group, which focused on the influence of P-gp gene polymorphism on daptomycin PK (n = 81 patients). […] All patients were enrolled in a cohort study after information. This cohort study was subject to a declaration to the local Commission for Data Protection and Liberties (number 17-057) and is registered on ClinicalTrial.gov (number NCT03134521). In addition, patients’ written informed consent was obtained for P-gp genotyping, in accordance with French regulation.\n(§2) Blood samples for daptomycin TDM were obtained during hospitalization or follow-up visit at the BJI center. In most patients, TDM was performed on several occasions to control drug exposure throughout therapy. At each occasion, a typical PK profile was obtained, including three plasma samples collected approximately pre-dose (trough or Cmin), 30 min and 5 to 6 h after daptomycin administration. On some occasions, only one or two samples could be obtained. Sampling times were recorded precisely in each patient. Daptomycin plasma concentrations were measured using an HPLC assay with a photodiode array detector. The method was adapted from a previous publication.\n(§3) In our previous work, the final population PK model of daptomycin was built by using a parametric approach (SAEM algorithm in the Monolix software). […] We reanalyzed the original dataset in order to implement a nonparametric model into the BestDose software. The NPAG algorithm embedded into the Pmetrics package for R was used to develop the nonparametric model. […] The error model was based on the assay error pattern. The predictive performance of the final model was assessed by computing the bias and precision of model-based individual predictions (see below). The model was then imported into the Windows version of the BestDose software.\n(§4) We used an external dataset from 94 patients who received daptomycin for BJI and had TDM to validate the predictive performance of our nonparametric model in BestDose and that of the parametric model in Tucuxi. In this evaluation, we only used the daptomycin concentrations collected during the first TDM occasion in each patient.\n(§5) The dosage history, covariate values, times and values of measured concentrations in each patient were entered into each program. The population model was fit to individual data by using Bayesian regression in both tools. After estimation of Bayesian posterior individual PK parameters, the estimated PK profile of each patient was obtained, including predictions of measured daptomycin concentrations.\n(§6) Because daptomycin AUC is an important predictor of its antibacterial effect, we also compared the estimations of individual daily AUC (AUC24h) in the 94 patients provided by BestDose and Tucuxi."}, "[3]": {"assay": "Daptomycin TDM in patients with bone and joint infection, Bayesian estimation with parametric model (Dvorchik et al.) in Tucuxi (validation dataset)", "source_text": "as §1, §2\nAs we aimed at comparing our nonparametric model to a reference model for TDM and dose adjustment, we implemented the seminal daptomycin parametric model developed by daptomycin’s manufacturer into the Tucuxi software. Tucuxi is a new software dedicated to the analysis of TDM results and individual dose adjustment (http://www.tucuxi.ch/, accessed 27 December 2021).\nThe two-compartment reference model from Dvorchik et al. was imported into Tucuxi, including its error model and all its covariates except body temperature, which influenced daptomycin clearance in the original model. This covariate was discarded because it is not measured consistently in all patients in routine, especially in outpatients, and its value may be altered by co-treatment such as acetaminophen. The other covariates were retained, with creatinine clearance and sex influencing daptomycin clearance and body weight influencing both intercompartment clearance and peripheral volume of distribution.\nas §4, §5, §6"}, "[4]": {"conditions": "cited from earlier work", "method": "Daptomycin is a cyclic lipopeptide antibiotic with bactericidal activity on Gram-positive bacteria discovered in 1980 [1, 2]. The Food and Drug Administration (FDA) approved its use in 2003 for treating complicated skin and skin structure infections and Staphylococcus aureus bloodstream infections, including those with right-sided infective endocarditis. In those indications, the recommended dosing regimen ranges from 4 to 6 mg/kg. Daptomycin is also used off-label in various indications, including bloodstream infections caused by Gram-positive agents others than S. aureus and bone an ..."}, "[5]": {"assay": "Nonparametric population PK model of daptomycin (NPAG, Pmetrics) in the learning dataset", "source_text": "as §1, §2, §3"}, "[6]": {"conditions": "in vivo; cited from earlier work", "source_text": "However, increasing daptomycin doses raises concerns about safety. It was shown that daptomycin muscular toxicity, as measured by elevation in serum creatinine phosphokinase (CPK), correlated with plasma trough concentration (Cmin)."}, "[7]": {"conditions": "learning dataset n = 81, Pmetrics estimation, mean"}, "[8]": {"conditions": "learning dataset n = 81, Pmetrics estimation, median"}}}
{"smiles": "CCCCCCCCCC(=O)N[C@@H](Cc1c[nH]c2ccccc12)C(=O)N[C@H](CC(N)=O)C(=O)N[C@@H](CC(=O)O)C(=O)N[C@@H]1C(=O)NCC(=O)N[C@@H](CCCN)C(=O)N[C@@H](CC(=O)O)C(=O)N[C@H](C)C(=O)N[C@@H](CC(=O)O)C(=O)NCC(=O)N[C@H](CO)C(=O)N[C@@H]([C@H](C)CC(=O)O)C(=O)N[C@@H](CC(=O)c2ccccc2N)C(=O)O[C@@H]1C", "note": "[daptomycin, Daptomycin]", "values": [{"measurement": "Rate of efficacy target attainment", "setting": "[1]", "value": 40, "unit": "%"}, {"measurement": "T1/2 (terminal half-life)", "setting": "[2]; BestDose individual estimate, validation dataset n = 94, mean ± SD, SD", "value": "16.8 ± 10.6", "unit": "h"}, {"measurement": "Proportion of patients with AUC24h < 666 mg.h/L (underexposed)", "setting": "[2]; human, in vivo", "value": 21.3, "unit": "%"}, {"measurement": "AUC24h", "setting": "[2]; human, in vivo, 1.3 mg/kg, SD", "value": "975 ± 395", "unit": "µg·h/mL"}, {"measurement": "CLdap (daptomycin total body clearance)", "setting": "[2]; human, in vivo, SD", "value": "0.74 ± 0.42", "unit": "L/h"}, {"measurement": "Cmin", "setting": "[2]; human, in vivo, SD", "value": "21300 ± 12900", "unit": "ng/mL"}, {"measurement": "Dmin (minimum effective dose to attain AUC24h = 666 mg.h/L at steady-state)", "setting": "[2]; human, in vivo, SD", "value": "6.4 ± 2.7", "unit": "mg/kg"}, {"measurement": "Predicted concentrations", "setting": "[2]; human, in vivo, SD", "value": "46.6 ± 46.7", "unit": "mg/L"}, {"measurement": "V1", "setting": "[2]; human, in vivo, SD", "value": "7.9 ± 3.5", "unit": "L"}, {"measurement": "T1/2 (terminal half-life)", "setting": "[3]; Tucuxi individual estimate, validation dataset n = 94, mean ± SD", "value": "13.1 ± 4.7", "unit": "h"}, {"measurement": "AUC24h", "setting": "[3]; human, in vivo, SD", "value": "893 ± 345", "unit": "µg·h/mL"}, {"measurement": "CLdap (daptomycin total body clearance)", "setting": "[3]; human, in vivo, SD", "value": "0.73 ± 0.29", "unit": "L/h"}, {"measurement": "Dmin (minimum effective dose to attain AUC24h = 666 mg.h/L at steady-state)", "setting": "[3]; human, in vivo, SD", "value": "6.9 ± 2.8", "unit": "mg/kg"}, {"measurement": "Predicted concentrations", "setting": "[3]; human, in vivo, SD", "value": "44.3 ± 44.5", "unit": "mg/L"}, {"measurement": "V1", "setting": "[3]; human, in vivo, SD", "value": "5.9 ± 2.4", "unit": "L"}, {"measurement": "Average ratio of area under the unbound concentration time-curve in bone over plasma", "setting": "[4]; 10 patients", "value": 1.08}, {"measurement": "Average tissue to plasma concentration ratio, bone", "setting": "[4]; bone", "value": 14.1, "unit": "%"}, {"measurement": "Average tissue to plasma concentration ratio, synovial fluid", "setting": "[4]; synovial fluid", "value": 54, "unit": "%"}, {"measurement": "Kpc (transfer rate constant peripheral to central), mean", "setting": "[5]; in vivo", "value": 0.667, "unit": "h⁻¹"}, {"measurement": "Kpc (transfer rate constant peripheral to central), median", "setting": "[5]; in vivo", "value": 0.449, "unit": "h⁻¹"}, {"measurement": "Kcp (transfer rate constant central to peripheral), mean", "setting": "[5]; [7]", "value": 0.693, "unit": "h⁻¹"}, {"measurement": "Ki (non-renal component of elimination rate constant), mean", "setting": "[5]; [7]", "value": 0.060, "unit": "h⁻¹"}, {"measurement": "Ks (renal component of elimination rate constant), mean", "setting": "[5]; [7]", "value": "0.050 h^−1 per 100 mL/min of CLCR"}, {"measurement": "Kcp (transfer rate constant central to peripheral), median", "setting": "[5]; [8]", "value": 0.287, "unit": "h⁻¹"}, {"measurement": "Ki (non-renal component of elimination rate constant), median", "setting": "[5]; [8]", "value": 0.052, "unit": "h⁻¹"}, {"measurement": "Ks (renal component of elimination rate constant), median", "setting": "[5]; [8]", "value": "0.045 h^−1 per 100 mL/min of CLCR"}, {"measurement": "V1 (central volume of distribution), mean", "setting": "[5]; population parameter, learning dataset n = 81, Pmetrics estimation, mean", "value": 6.90, "unit": "L per 70 kg"}, {"measurement": "V1 (central volume of distribution), median", "setting": "[5]; population parameter, learning dataset n = 81, Pmetrics estimation, median", "value": 7.18, "unit": "L per 70 kg"}, {"measurement": "Upper bound for Cmin target (CPK elevation)", "setting": "[6]", "value": 24300, "unit": "ng/mL"}]}
